From US12441704B2, “Compounds active towards nuclear receptors” (NUEVOLUTION A/S, priority 2019, dated 2025)
Read-outs that look alike come from different tables or passages of the source.

Key:
[1] = test system: IL-17A secretion in activated PBMCs; assay: IL-17A secretion in activated PBMCs; assay type: cell-based, human; conditions: for IC50: human PBMCs stimulated with CD3/CD28 Dynabeads for 48 h, absolute IC50
Experimental: Heparin-treated whole blood from healthy human volunteers was supplied from Hospital de Sant Pau (Barcelona) under the approval of the local ethical review board for human studies (Hospital de Sant Pau, Barcelona, Spain). Human peripheral blood mononuclear cells (PBMCs) were isolated from healthy human volunteers by density gradient centrifugation using the Ficoll-Paque (GE Healthcare). […] Cells were seeded in 384-well plate (DiscoverX), at 40,000 cells per well and cultured 2 h at 37° C. and 5% CO2.
Dose-response curves with compounds were prepared using a 5-fold serial dilution (10 concentrations) in 100% DMSO and further diluted 100-fold in culture medium. Compound solutions (5 μL) were added to the plate containing cells (final DMSO concentration of 0.1%) and incubated for 30 min. Then, cells were stimulated with CD3/CD28 Dynabeads (ThermoFisher, at a bead-to-cell ratio of 1:1) for 48 h at 37° C. and 5% CO2.
IL-17A levels in supernatant were determined by immunoassay using hIL17A QBeads (Intellicyt) and by fluorescence analysis in iQue flow cytometer following the manufacturer's instructions. Inhibition of IL-17A secretion was calculated using the following formula: inhibition=100*[1−[(x−mean basal condition)/(mean top condition−mean basal condition)]]. Activated DMSO-treated cells were used as top condition and activated GNE09461 (10 μM)-treated cells as basal condition.

[2] = molecular target: T1, RORγ ligand-binding domain fused to Gal4 (Homo sapiens, UniProt P51449); assay: RORγ Reporter Assay (Gal4); assay type: cell-based
T1 construct: Gal4 (galactose-responsive transcription factor); expressed in transfected cells; host or cells: HEK293
T1 sequence (P51449 269-508 limits assumed): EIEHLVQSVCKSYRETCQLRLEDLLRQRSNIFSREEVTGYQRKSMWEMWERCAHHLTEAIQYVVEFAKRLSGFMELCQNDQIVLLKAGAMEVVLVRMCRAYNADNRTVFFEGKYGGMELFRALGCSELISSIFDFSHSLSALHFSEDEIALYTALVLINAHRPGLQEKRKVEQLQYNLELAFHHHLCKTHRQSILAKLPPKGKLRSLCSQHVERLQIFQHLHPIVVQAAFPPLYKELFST
Procedure, shortened: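 Percent inhibition was derived from luciferase RLU versus vehicle mean after 24 h compound incubation (37 °C, 0.1% DMSO). The cells were HEK293, transiently co-expressing a Gal4–RORγ ligand-binding-domain fusion plus a UAS-driven luciferase gene.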

[3] = HEK293 cells co-transfected with RORγ LBD-Gal4 and luciferase reporter, 24 h incubation, absolute EC50, read-out: EC50
[4] = compounds of the present disclosure, value from Table 2 herein, read-out: Gal4 assay EC50

Compound	EC50 [2, 3]	EC50 [2, 4]	IC50 ([1]; Homo sapiens, PBMC, 48 h)	IC50 [1]	inhibition at 10 µM ([1]; PBMC, @10 uM, human PBMCs stimulated with CD3/CD28 Dynabeads)
NC(=O)CN1CC[C@@H](CNc2ncnc(N(Cc3cccc(OC(F)(F)F)c3)C3CC3)c2F)[C@H](O)C1 (racemic) [Example A7-56, rac-2-((3R,4R)-4-(((6-(cyclopropyl(3-(trifluoromethoxy)benzyl)amino)-5-fluoropyrimidin-4-yl)amino)methyl)-3-hydroxypiperidin-1-yl)acetamide]	0.0053 µM	< 0.1 µM	–	–	66%
NC(=O)CN1CCC(CNc2ncnc(N(Cc3ccc(C(F)(F)F)cc3)C3CC3)c2F)(c2cnn[nH]2)CC1 [Example A7-85, 2-(4-(((6-(Cyclopropyl(4-(trifluoromethyl)benzyl)amino)-5-fluoropyrimidin-4-yl)amino)methyl)-4-(1H-1,2,3-triazol-5-yl)piperidin-1-yl)acetamide]	0.0079 µM	–	0.12 µM	–	–
NC(=O)CN1CCC(O)(CNc2ncnc(N(Cc3ccc(C(F)(F)F)cc3)C3CC3)c2F)CC1 [Example A7-10, 2-(4-(((6-(cyclopropyl(4-(trifluoromethyl)benzyl)amino)-5-fluoropyrimidin-4-yl)amino)methyl)-4-hydroxypiperidin-1-yl)acetamide]	0.0033 µM	–	0.017 µM	–	–
NC(=O)CN1CC[C@@H](CNc2ncnc(N(Cc3ccc(C(F)(F)F)cn3)C3CC3)c2F)[C@H](O)C1 (single isomer, unassigned) [Example A7-14-1]	0.0083 µM	< 0.1 µM	0.038 µM	–	–
NC(=O)CN1CCC(CNc2ncnc(N(Cc3ccc(C(F)(F)F)cc3)C3CC3)c2F)(c2ncon2)CC1 [Example A7-81, 2-(4-(((6-(Cyclopropyl(4-(trifluoromethyl)benzyl)amino)-5-fluoropyrimidin-4-yl)amino)methyl)-4-(1,2,4-oxadiazol-3-yl)piperidin-1-yl)acetamide]	0.0053 µM	–	0.12 µM	–	–
NC(=O)CN1CC[C@@H](CNc2ncnc(N(Cc3ccc(C(O)(C(F)(F)F)C(F)(F)F)cc3)C3CC3)c2F)[C@H](O)C1 (stereo in doubt) [Example A7-54, rac-2-((3R,4R)-4-(((6-(cyclopropyl(4-(1,1,1,3,3,3-hexafluoro-2-hydroxypropan-2-yl)benzyl)amino)-5-fluoropyrimidin-4-yl)amino)methyl)-3-hydroxypiperidin-1-yl)acetamide]	0.0006 µM	–	0.0056 µM	–	–
CCN(Cc1ccc(C(O)(C(F)(F)F)C(F)(F)F)cc1)c1ncnc(NC[C@]2(O)CCN(CC(N)=O)C[C@H]2O)c1F (relative stereo) [Example D5-04, rel-2-((3R,4R)-4-(((6-(ethyl(4-(1,1,1,3,3,3-hexafluoro-2-hydroxypropan-2-yl)benzyl)amino)-5-fluoropyrimidin-4-yl)amino)methyl)-3,4-dihydroxypiperidin-1-yl)acetamide]	0.0055 µM	–	0.001 µM	–	–
NC(=O)CN1CCC(CNc2ncnc(N(Cc3ccc(C(F)(F)F)cc3)C3CC3)c2F)(C(N)=O)CC1 [Example A7-44, 1-(2-amino-2-oxoethyl)-4-(((6-(cyclopropyl(4-(trifluoromethyl)benzyl)amino)-5-fluoropyrimidin-4-yl)amino)methyl)piperidine-4-carboxamide]	0.024 µM	–	0.074 µM	–	–

Continued, in another order:

EC50 [2, 3]	EC50 [2, 4]	Compound	IC50 ([1]; Homo sapiens, PBMC, 48 h)	IC50 [1]	inhibition at 10 µM ([1]; PBMC, @10 uM, human PBMCs stimulated with CD3/CD28 Dynabeads)
0.012 µM	–	CCN(Cc1ccc(C(F)(F)F)cc1)c1ncnc(NC[C@H]2CCN(CC(N)=O)C[C@@H]2O)c1F (racemic) [Example A7-21, rac-2-((3R,4R)-4-(((6-(ethyl(4-(trifluoromethyl)benzyl)amino)-5-fluoropyrimidin-4-yl)amino)methyl)-3-hydroxypiperidin-1-yl)acetamide]	0.08 µM	–	–
0.029 µM	–	NC(=O)CN1CC[C@@H](CNc2ncnc(N(Cc3ccc(C(F)(F)F)cc3)[C@H]3C[C@H](F)C3)c2F)[C@H](O)C1 (racemic) [Example A7-31, rac-2-((3R,4R)-4-(((5-fluoro-6-(((1r,3S)-3-fluorocyclobutyl)(4-(trifluoromethyl)benzyl)amino)pyrimidin-4-yl)amino)methyl)-3-hydroxypiperidin-1-yl)acetamide]	0.18 µM	–	–
0.0058 µM	–	NC(=O)C(CO)N1CC[C@@H](CNc2ncnc(N(Cc3ccc(C(F)(F)F)cc3)C3CC3)c2F)[C@H](O)C1 (mixture of isomers) [Example A7-65, rac-2-((3R,4R)-4-(((6-(cyclopropyl(4-(trifluoromethyl)benzyl)amino)-5-fluoropyrimidin-4-yl)amino)methyl)-3-hydroxypiperidin-1-yl)-3-hydroxypropanamide]	0.012 µM	–	–
0.088 µM	–	CCN(Cc1ccc(C(F)(F)F)cc1)c1ncnc(NC[C@H]2CCN(C(CO)C(N)=O)C[C@@H]2O)c1F (relative stereo) [Example A7-66-2, rel-(R)-2-((3R,4R)-4-(((6-(ethyl(4-(trifluoromethyl)benzyl)amino)-5-fluoropyrimidin-4-yl)amino)methyl)-3-hydroxypiperidin-1-yl)-3-hydroxypropanamide OR rel-(R)-2-((3S,4S)-4-(((6-(ethyl(4-(trifluoromethyl)benzyl)amino)-5-fluoropyrimidin-4-yl)amino)methyl)-3-hydroxypiperidin-1-yl)-3-hydroxypropanamide]	–	0.21 µM	–
0.073 µM	–	CCN(Cc1ccc(-n2cccn2)cc1)c1ncnc(NC[C@@H]2CCN(CC(N)=O)C[C@H]2O)c1F (racemic) [Example A7-77, rac-2-((3R,4R)-4-(((6-((4-(1H-Pyrazol-1-yl)benzyl)(ethyl)amino)-5-fluoropyrimidin-4-yl)amino)methyl)-3-hydroxypiperidin-1-yl)acetamide]	0.44 µM	–	–
0.0034 µM	–	NC(=O)C(c1ccncc1)N1CC[C@@H](CNc2ncnc(N(Cc3ccc(C(F)(F)F)cc3)C3CC3)c2F)[C@H](O)C1 (mixture of isomers) [Example A7-63, rac-2-((3R,4R)-4-(((6-(cyclopropyl(4-(trifluoromethyl)benzyl)amino)-5-fluoropyrimidin-4-yl)amino)methyl)-3-hydroxypiperidin-1-yl)-2-(pyridin-4-yl)acetamide]	0.0023 µM	–	–
0.0096 µM	–	CCN(Cc1ccc(C(F)(F)F)cc1)c1ncnc(NC[C@]2(O)CCN(CC(N)=O)C[C@H]2O)c1F (single isomer, unassigned) [Example D5-01-1-2]	–	0.024 µM	–
0.0045 µM	–	CCN(Cc1ccc(C(F)(F)F)cc1)c1ncnc(NC[C@@]2(O)CCN(C(C(N)=O)c3ccncc3)C[C@@H]2O)c1F (relative stereo) [Example D5-07, rel-2-((3R,4R)-4-(((6-(ethyl(4-(trifluoromethyl)benzyl)amino)-5-fluoropyrimidin-4-yl)amino)methyl)-3,4-dihydroxypiperidin-1-yl)-2-(pyridin-4-yl)acetamide]	0.0025 µM	–	–
0.026 µM	–	CCN(Cc1ccc(C(F)(F)F)cc1)c1ncnc(NC[C@@H]2CCN([C@H](CO)C(N)=O)C[C@H]2O)c1F (relative stereo) [Example A7-66-1, rel-(R)-2-((3R,4R)-4-(((6-(ethyl(4-(trifluoromethyl)benzyl)amino)-5-fluoropyrimidin-4-yl)amino)methyl)-3-hydroxypiperidin-1-yl)-3-hydroxypropanamide OR rel-(R)-2-((3S,4S)-4-(((6-(ethyl(4-(trifluoromethyl)benzyl)amino)-5-fluoropyrimidin-4-yl)amino)methyl)-3-hydroxypiperidin-1-yl)-3-hydroxypropanamide]	0.018 µM	–	–
0.0088 µM	–	NC(=O)C(CO)N1CCC(CO)(CNc2ncnc(N(Cc3ccc(C(F)(F)F)cc3)C3CC3)c2F)CC1 (stereo not shown) [Example A7-70, 2-(4-(((6-(cyclopropyl(4-(trifluoromethyl)benzyl)amino)-5-fluoropyrimidin-4-yl)amino)methyl)-4-(hydroxymethyl)piperidin-1-yl)-3-hydroxypropanamide]	0.012 µM	–	–
0.0047 µM	–	CC(C)(C(N)=O)N1CC[C@@H](CNc2ncnc(N(Cc3ccc(C(F)(F)F)cc3)C3CC3)c2F)[C@H](O)C1 (relative stereo) [Example A7-55, rel-2-((3R,4R)-4-(((6-(cyclopropyl(4-(trifluoromethyl)benzyl)amino)-5-fluoropyrimidin-4-yl)amino)methyl)-3-hydroxypiperidin-1-yl)-2-methylpropanamide]	0.0049 µM	–	–
